{"source": "patent US7429578B2", "about": "“Tricyclic inhibitors of poly(ADP-ribose) polymerases” (Agouron Pharmaceuticals, Inc., priority 1999, dated 2008)", "key": {"[1]": {"biological_target": "purified PARP protein (Homo sapiens, UniProt P09874)", "sequence (P09874 whole entry)": "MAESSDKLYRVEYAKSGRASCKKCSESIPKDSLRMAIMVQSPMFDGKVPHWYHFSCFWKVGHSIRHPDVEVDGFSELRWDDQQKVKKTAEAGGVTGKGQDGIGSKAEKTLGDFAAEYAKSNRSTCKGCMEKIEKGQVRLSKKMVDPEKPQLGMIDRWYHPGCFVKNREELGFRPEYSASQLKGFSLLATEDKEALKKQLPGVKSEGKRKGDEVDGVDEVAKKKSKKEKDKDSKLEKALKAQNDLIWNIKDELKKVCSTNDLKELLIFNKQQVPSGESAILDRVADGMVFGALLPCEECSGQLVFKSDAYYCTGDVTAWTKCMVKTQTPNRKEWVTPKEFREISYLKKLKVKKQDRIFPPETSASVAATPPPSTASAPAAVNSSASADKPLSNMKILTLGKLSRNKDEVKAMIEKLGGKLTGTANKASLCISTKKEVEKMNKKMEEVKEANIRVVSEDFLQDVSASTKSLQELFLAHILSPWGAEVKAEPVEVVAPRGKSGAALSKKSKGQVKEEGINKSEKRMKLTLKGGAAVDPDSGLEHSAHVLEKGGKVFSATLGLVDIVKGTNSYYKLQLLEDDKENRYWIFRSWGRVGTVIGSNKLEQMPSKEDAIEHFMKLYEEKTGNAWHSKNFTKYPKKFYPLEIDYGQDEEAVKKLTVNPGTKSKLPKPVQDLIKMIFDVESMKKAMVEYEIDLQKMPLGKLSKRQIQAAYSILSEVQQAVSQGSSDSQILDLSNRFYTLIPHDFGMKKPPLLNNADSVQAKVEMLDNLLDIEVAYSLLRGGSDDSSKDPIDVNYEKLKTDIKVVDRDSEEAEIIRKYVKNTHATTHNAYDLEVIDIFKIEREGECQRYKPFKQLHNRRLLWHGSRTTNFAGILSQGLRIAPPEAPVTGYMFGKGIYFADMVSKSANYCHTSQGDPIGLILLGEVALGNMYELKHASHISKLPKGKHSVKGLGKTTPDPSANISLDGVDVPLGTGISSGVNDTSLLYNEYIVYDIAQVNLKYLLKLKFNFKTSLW", "experiment": "PARP enzyme inhibition assay", "type": "biochemical"}, "[2]": {"settings": "[32P]NAD+ incorporation, 500 μM NAD+, 25° C., two values in a cell = tested twice, read-out: Inhibition Constant Ki"}}, "note": "pKi: −log10 of the molar value. Several values for one entry are separate records, joined by “and”; a condition that tells them apart may be missing. Identical values can stand only once. Counter-ions that a name gives are not always drawn. Like-named read-outs stand apart in the source and are kept apart here."}
{"smiles": "O=C1NCC(c2ccccc2)c2c[nH]c3cccc1c23", "note": "(racemic) [Compound 20, (rac)-3-Phenyl-3,4,5,6-tetrahydro-1H-azepino[5,4,3-cd]indol-6-one]", "values": [{"measurement": "pKi", "setting": "[1]; [2]", "value": 7.35}]}
{"smiles": "COc1ccc(C2CNC(=O)c3cccc4[nH]cc2c34)cc1", "note": "(racemic) [RRRR, (rac)-3-(4-Methoxyphenyl)-3,4,5,6-tetrahydro-1H-azepino[5,4,3-cd]indol-6-one]", "values": [{"measurement": "pKi", "setting": "[1]; [2]", "value": 7.21}]}
{"smiles": "COC(=O)CCc1ccccc1-c1[nH]c2cccc3c2c1CCNC3=O", "note": "[AAA, 3-[2-(6-Oxo-3,4,5,6-tetrahydro-1H-azepino[5,4,3-cd]indol-2-yl)-phenyl]-propionic acid methyl ester]", "values": [{"measurement": "melting point", "value": "201 to 201.5", "unit": "°C"}, {"measurement": "pKi", "setting": "[1]; [2]", "value": 7.94}]}
{"smiles": "O=C1NN=Cc2c(-c3ccc(F)cc3)[nH]c3cccc1c23", "note": "[AAAA]", "values": [{"measurement": "pKi", "setting": "[1]; [2]", "value": 8.96}]}
{"smiles": "O=C1NCCc2c(-c3ccccc3CCCO)[nH]c3cccc1c23", "note": "[BBB, 2-[2-(3-Hydroxy-propyl)-phenyl]-1,3,4,5-tetrahydro-azepino[5,4,3-cd]indol-6-one]", "values": [{"measurement": "melting point", "value": "233.5 to 234.5", "unit": "°C"}, {"measurement": "pKi", "setting": "[1]; [2]", "value": 7.70}]}
{"smiles": "O=C1NCCc2c(-c3cccs3)[nH]c3cccc1c23", "note": "[BBBB, 2-Thiophen-2-yl-1,3,4,5-tetrahydro-azepino[5,4,3-cd]indol-6-one]", "values": [{"measurement": "melting point", "value": "220.5 to 222.5", "unit": "°C"}]}
{"smiles": "O=C1NCCc2c(-c3ccc(O)cc3)[nH]c3cccc1c23", "note": "[CCC, 2-(4-Hydroxy-phenyl)-1,3,4,5-tetrahydro-azepino[5,4,3-cd]indol-6-one]", "values": [{"measurement": "melting point", "value": "300 °C (dec.)"}, {"measurement": "pKi", "setting": "[1]; [2]", "value": 8.14}]}
{"smiles": "O=C1NCCc2c(-c3ccsc3)[nH]c3cccc1c23", "note": "[CCCC, 2-Thiophen-3-yl-1,3,4,5-tetrahydro-azepino[5,4,3-cd]indol-6-one]", "values": [{"measurement": "melting point", "value": "255 to 256", "unit": "°C"}, {"measurement": "pKi", "setting": "[1]; [2]", "value": 8.32}]}
{"smiles": "O=C1NCc2c(-c3ccccc3)[nH]c3cccc1c23", "note": "[Compound 3, Phenyl-3,4-dihydropyrrolo[4,3,2-de]isoquinolin-5-(1H)-one]", "values": [{"measurement": "pKi", "setting": "[1]; [2]", "value": 8.55}]}
{"smiles": "O=C1NCCc2c[nH]c3cccc1c23", "note": "[Compound 10, 3,4,5,6-tetrahydro-1H-azepino[5,4,3-cd]indol-6-one]", "values": [{"measurement": "pKi", "setting": "[1]; [2]", "value": 7.42}]}
{"smiles": "O=C1NCCc2c(Br)[nH]c3cccc1c23", "note": "[Compound 11, 2-Bromo-3,4,5,6-tetrahydro-1H-azepino[5,4,3-cd]indol-6-one]", "values": [{"measurement": "pKi", "setting": "[1]; [2]", "value": 8.14}]}
{"smiles": "O=C1NCCc2c(-c3cccc([N+](=O)[O-])c3)[nH]c3cccc1c23", "note": "[Compound 14, 2-(3-Nitrophenyl)-3,4,5,6-tetrahydro-1H-azepino[5,4,3-cd]indol-6-one]", "values": [{"measurement": "pKi", "setting": "[1]; [2]", "value": 8.85}]}
{"smiles": "O=C1NCCc2c(C#Cc3ccccc3)[nH]c3cccc1c23", "note": "[Compound 17]", "values": [{"measurement": "pKi", "setting": "[1]; [2]", "value": 8.19}]}
{"smiles": "Cn1c(-c2ccccc2)c2c3c(cccc31)C(=O)NCC2", "note": "[Compound 18, 1-Methyl-2-phenyl-3,4,5,6-tetrahydro-1H-azepino[5,4,3-cd]indol-6-one]", "values": [{"measurement": "pKi", "setting": "[1]; [2]", "value": "< 6.00"}]}
{"smiles": "CN1CCc2c(-c3ccccc3)n(C)c3cccc(c23)C1=O", "note": "[Compound 18a, 1,5-dimethyl-2-phenyl-3,4,5,6-tetrahydro-1H-azepino[5,4,3-cd]indol-6-one]", "values": [{"measurement": "melting point", "value": "175 to 177", "unit": "°C"}]}
{"smiles": "CN(C)Cc1cccc(-c2[nH]c3cccc4c3c2CNC4=O)c1", "note": "[Compound 25]", "values": [{"measurement": "pKi", "setting": "[1]; [2]", "value": 8.40}]}
{"smiles": "O=C1NCCc2c(-c3ccccc3)[nH]c3cc(Br)cc1c23", "note": "[Compound 26, 8-Bromo-2-phenyl-3,4,5,6-tetrahydro-1H-azepino[5,4,3-cd]indol-6-one]", "values": [{"measurement": "pKi", "setting": "[1]; [2]", "value": "7.66 and 7.74"}]}
{"smiles": "O=C1NCCc2c(-c3ccc(F)c(Cl)c3)[nH]c3cccc1c23", "note": "[Compound 35, 2-(3-Chloro-4-fluoro-phenyl)-1,3,4,5-tetrahydro-azepino[5,4,3-cd]indol-6-one]", "values": [{"measurement": "pKi", "setting": "[1]; [2]", "value": "8.42 and 8.24"}]}
{"smiles": "O=C1NCCc2c(-c3cccc4ccccc34)[nH]c3cccc1c23", "note": "[Compound 41, 2-Naphthalen-1-yl-1,3,4,5-tetrahydro-azepino[5,4,3-cd]indol-6-one]", "values": [{"measurement": "melting point", "value": "305 °C (dec.)"}]}
{"smiles": "O=C1NCCc2c(I)[nH]c3cccc1c23", "note": "[Compound 43, 2-Iodo-1,3,4,5-tetrahydro-azepino[5,4,3-cd]indol-6-one]", "values": [{"measurement": "pKi", "setting": "[1]; [2]", "value": 8.59}]}
{"smiles": "O=C1NCCc2c(-c3[nH]c4cccc5c4c3CCNC5=O)[nH]c3cccc1c23", "note": "[Compound TTT, 1,3,4,5,1′,3′,4′,5′-Octahydro-[2,2′]bi[azepino[5,4,3-cd]indolyl]-6,6′-dione]", "values": [{"measurement": "pKi", "setting": "[1]; [2]", "value": 7.59}]}
{"smiles": "O=C1NCCc2c(-c3ccc[nH]3)[nH]c3cccc1c23", "note": "[DDDD, 2-(1H-Pyrrol-2-yl)-1,3,4,5-etatrhydro-azepino[5,4,3-cd]indol-6-one]", "values": [{"measurement": "pKi", "setting": "[1]; Inhibition Constant Ki", "value": 8.11}]}
{"smiles": "O=C1NCCc2c(-c3cccnc3)[nH]c3cccc1c23", "note": "[HHH, 2-Pyridin-3-yl-1,3,4,5-tetrahydro-azepino[5,4,3-cd]indol-6-one]", "values": [{"measurement": "melting point", "value": "260.5 to 262", "unit": "°C"}]}
{"smiles": "O=C(O)c1[nH]c2cccc3c2c1CCNC3=O", "note": "[KKK, 6-Oxo-3,4,5,6-tetrahydro-1H-azepino[5,4,3-cd]indole-2-carboxylic acid sodium salt]", "values": [{"measurement": "pKi", "setting": "[1]; [2]", "value": 6.65}]}
{"smiles": "O=C(Nc1ccccc1)c1[nH]c2cccc3c2c1CCNC3=O", "note": "[KKKK, 6-Oxo-1,3,4,5-tetrahydro-1H-azepino[5,4,3-cd]indole-2-carboxylic Acid Phenylamide]", "values": [{"measurement": "melting point", "value": "320 to 322 °C (dec.)"}]}
{"smiles": "O=C(Nc1ccc(Cl)cc1)c1[nH]c2cccc3c2c1CCNC3=O", "note": "[LLLL, 6-Oxo-1,3,4,5-tetrahydro-1H-azepino[5,4,3-cd]indole-2-carboxylic acid (4-chlorophenyl)-amide]", "values": [{"measurement": "pKi", "setting": "[1]; [2]", "value": 8.07}]}
{"smiles": "O=C(Nc1ccc2ccccc2c1)c1[nH]c2cccc3c2c1CCNC3=O", "note": "[MMMM, 6-Oxo-1,3,4,5-tetrahydro-1H-azepino[5,4,3-cd]indole-2-carboxylic Acid naphthalen-2-ylamide]", "values": [{"measurement": "pKi", "setting": "[1]; [2]", "value": 7.80}]}
{"smiles": "CC(=O)Nc1ccc(F)cc1-c1[nH]c2cccc3c2c1CCNC3=O", "note": "[NNN, N-[4-Fluoro-2-(6-oxo-3,4,5,6-tetrahydro-1H-azepino[5,4,3-cd]indol-2-yl)-phenyl]-acetamide]", "values": [{"measurement": "pKi", "setting": "[1]; [2]", "value": 6.76}]}
{"smiles": "O=C(NC1CC1)c1[nH]c2cccc3c2c1CCNC3=O", "note": "[QQQQ, 6-Oxo-1,3,4,5-tetrahydro-1H-azepino[5,4,3-cd]indole-2-carboxylic Acid Cyclopropylamide]", "values": [{"measurement": "pKi", "setting": "[1]; [2]", "value": 7.68}]}
{"smiles": "Nc1cccc(-c2[nH]c3cccc4c3c2CCNC4=O)c1", "note": "[RR, 2-(3-Aminophenyl)-3,4,5,6-tetrahydro-1H-azepino[5,4,3-cd]indol-6-one]", "values": [{"measurement": "pKi", "setting": "[1]; [2]", "value": 8.16}]}
{"smiles": "O=C1NCCc2c(-c3cccc(CN4CCOCC4)c3)[nH]c3cccc1c23", "note": "[SSSS, 2-(3-Morpholin-4-ylmethylphenyl)-3,4,5,6-tetrahydro-1H-azepino[5,4,3-cd]indol-6-one]", "values": [{"measurement": "pKi", "setting": "[1]; [2]", "value": 7.72}]}
{"smiles": "O=C1NCCc2c(-c3ccc4[nH]ccc4c3)[nH]c3cccc1c23", "note": "[VVV, 2-(1H-Indol-5-yl)-1,3,4,5-tetrahydro-azepino[5,4,3-cd]indol-6-one]", "values": [{"measurement": "melting point", "value": "315 to 317 °C (dec.)"}]}
{"smiles": "O=C1NCCc2c(-c3ccc(CO)cc3)[nH]c3cccc1c23", "note": "[WWWW, 2-(4-Hydroxymethylphenyl)-3,4,5,6-tetrahydro-1H-azepino[5,4,3-cd]indol-6-one]", "values": [{"measurement": "pKi", "setting": "[1]; [2]", "value": 8.24}]}
{"smiles": "O=C1NN=C(c2ccc(C(F)(F)F)cc2)c2c[nH]c3cccc1c23", "note": "[YYYY]", "values": [{"measurement": "pKi", "setting": "[1]; [2]", "value": 8.05}]}
{"smiles": "O=C1NN=Cc2c(-c3ccc(Cl)cc3)[nH]c3cccc1c23", "note": "[ZZZ, (4-Chloro-phenyl)-1,5-dihydro-[1,2]diazepino[4,5,6-cd]indol-6-one]", "values": [{"measurement": "pKi", "setting": "[1]; [2]", "value": 9.15}]}
{"smiles": "O=C1NN=C(C(F)(F)C(F)(F)F)c2c[nH]c3cccc1c23", "note": "[ZZZZ, 1,5-Dihydro-3-pentafluoroethyl-[1,2]diazepino[4,5,6-cd]-indol-6-one]", "values": [{"measurement": "pKi", "setting": "[1]; [2]", "value": 7.40}]}
